In this assay the target is T1, human mGlu4 receptor (Homo sapiens, UniProt Q14833).
T1 construct: expressed in transfected cells; host or cells: HEK-293 (monoclonal, stably transfected)
The experiment in a line: Ca2+ mobilization in vitro assay on recombinant human mGlu4 expressed in HEK293 cells (mGlu4 PAM). It counts as cell-based. The note with it: for Emax: HEK293, maximal response in % of the maximal stimulatory effect obtained with saturating concentrations of L-AP4, read-out: Eff. (%); for EC50: HEK-293 cells, Ca2+ mobilization, L-AP4 added at EC20. On the procedure:
Determination of EC50 Values Using a Ca2+ mobilization in vitro Assay on Recombinant Human mGlu4 Expressed in HEK293 cells:
A monoclonal HEK-293 cell line stably transfected with a cDNA encoding for the human mGlu4 receptor was generated; for the work with mGlu4 Positive Allosteric Modulators (PAMs), a cell line with low receptor expression levels and low constitutive receptor activity was selected to allow the differentiation of agonistic versus PAM activity. Cells were cultured according to standard protocols (Freshney, 2000) in Dulbecco's Modified Eagle Medium with high glucose supplemented with 1 mM glutamine, 10% (vol/vol) heat-inactivated bovine calf serum, Penicillin/Streptomycin, 50 μg/ml hygromycin and 15 μg/ml blasticidin (all cell culture reagents and antibiotics from Invitrogen, Basel, Switzerland).
About 24 hrs before an experiment, 5×10^4 cells/well were seeded in poly-D-lysine coated, black/clear-bottomed 96-well plates. The cells were loaded with 2.5 μM Fluo-4AM in loading buffer (1×HBSS, 20 mM HEPES) for 1 hr at 37° C. and washed five times with loading buffer. The cells were transferred into a Functional Drug Screening System 7000 (Hamamatsu, Paris, France), and 11 half logarithmic serial dilutions of test compound at 37° C. were added and the cells were incubated for 10-30 min. with on-line recording of fluorescence. Following this pre-incubation step, the agonist (2S)-2-amino-4-phosphonobutanoic acid (L-AP4) was added to the cells at a concentration corresponding to EC20 with on-line recording of fluorescence; in order to account for day-to-day variations in the responsiveness of cells, the EC20 of L-AP4 was determined immediately ahead of each experiment by recording of a full dose-response curve of L-AP4.
Responses were measured as peak increase in fluorescence minus basal (i.e. fluorescence without addition of L-AP4), normalized to the maximal stimulatory effect obtained with saturating concentrations of L-AP4. Graphs were plotted with the % maximal stimulatory using XLfit, a curve fitting program that iteratively plots the data using Levenburg Marquardt algorithm. The single site competition analysis equation used was y=A+((B−A)/(1+((x/C)D))), where y is the % maximal stimulatory effect, A is the minimum y, B is the maximum y, C is the EC50, x is the log 10 of the concentration of the competing compound and D is the slope of the curve (the Hill Coefficient). From these curves the EC50 (drug concentration at which 50% of the maximal receptor activation was achieved), the Hill coefficient as well as the maximal response in % of the maximal stimulatory effect obtained with saturating concentrations of L-AP4 were calculated (see FIG. 1).
A depression of the signal observed after addition of the EC20 concentration of L-AP4was indicative of an inhibitory activity of the test compound.
For orientation: Calcium assays in cells follow changes in intracellular calcium, usually with a dye or a luminescent sensor.

T1 sequence (Q14833 33-912): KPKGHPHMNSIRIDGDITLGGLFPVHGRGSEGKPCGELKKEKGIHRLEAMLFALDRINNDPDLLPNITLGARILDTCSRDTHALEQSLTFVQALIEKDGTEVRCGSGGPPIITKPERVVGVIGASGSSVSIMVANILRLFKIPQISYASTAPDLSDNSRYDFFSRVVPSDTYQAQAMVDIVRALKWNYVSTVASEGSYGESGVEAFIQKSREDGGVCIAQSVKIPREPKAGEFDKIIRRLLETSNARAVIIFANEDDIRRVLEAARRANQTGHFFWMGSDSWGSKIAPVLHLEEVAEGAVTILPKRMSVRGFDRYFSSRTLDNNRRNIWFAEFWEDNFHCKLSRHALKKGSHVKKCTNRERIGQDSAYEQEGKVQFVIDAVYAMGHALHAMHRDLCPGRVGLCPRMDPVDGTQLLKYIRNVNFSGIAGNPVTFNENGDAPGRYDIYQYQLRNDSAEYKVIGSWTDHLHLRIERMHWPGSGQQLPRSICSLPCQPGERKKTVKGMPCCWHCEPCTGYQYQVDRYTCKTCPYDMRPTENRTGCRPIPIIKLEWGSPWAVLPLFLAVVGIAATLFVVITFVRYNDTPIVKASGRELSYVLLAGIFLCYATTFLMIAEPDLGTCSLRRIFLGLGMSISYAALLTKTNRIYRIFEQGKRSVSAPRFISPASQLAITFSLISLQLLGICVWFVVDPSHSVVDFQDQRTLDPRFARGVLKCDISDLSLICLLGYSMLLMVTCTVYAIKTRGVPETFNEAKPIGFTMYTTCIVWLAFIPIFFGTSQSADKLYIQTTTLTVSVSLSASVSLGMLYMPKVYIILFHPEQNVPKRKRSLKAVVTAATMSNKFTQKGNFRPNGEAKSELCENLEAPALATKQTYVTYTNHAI

As a reminder, the EC50 is the concentration needed to bring the measured effect to its halfway point. Consider `COc1cccc(C2(C)CC(=O)N(c3c(F)cc(C#Cc4cccnc4)cc3F)C(=O)N2C)c1` (racemic) [Example 42, (6RS)-3-[2,6-Difluoro-4-[2-(3-pyridyl)ethynyl]phenyl]-6-(3-methoxyphenyl)-1,6-dimethyl-hexahydropyrimidine-2,4-dione], for which the Emax turned out to be 116% and the EC50 came to 165 nM.

In the case of `COc1ncc([C@]2(C)CC(=O)N(c3c(F)cc(C#Cc4ccccc4)cc3F)C(=O)N2C)cn1` [Example 79, (6S)-3-[2,6-Difluoro-4-(2-phenylethynyl)phenyl]-6-(2-methoxypyrimidin-5-yl)-1,6-dimethyl-hexahydropyrimidine-2,4-dione], the Emax was 105% and the EC50 was 46 nM.

For `CC12CC(=O)N(c3c(F)cc(C#Cc4ccccc4)cc3F)C(=O)N1CCN(c1ccccc1)C2=O` (racemic) [Example 38, (9aRS)-7-[2,6-Difluoro-4-(2-phenylethynyl)phenyl]-9a-methyl-2-phenyl-4,9-dihydro-3H-pyrazino[1,2-c]pyrimidine-1,6,8-trione], the Emax is 105% and the EC50 was found to be 31 nM.

With `CCC1(CC)CC(=O)N(c2c(F)cc(C#Cc3ccccc3)cc2F)C(=O)N1` [Example 21, 3-[2,6-Difluoro-4-(2-phenylethynyl)phenyl]-6,6-diethyl-hexahydropyrimidine-2,4-dione], the Emax was 106% and the EC50 was found to be 145 nM.

In the case of `CC(C)Oc1ccc([C@]2(C)CC(=O)N(c3c(F)cc(C#Cc4ccccc4)cc3F)C(=O)N2C)cn1` [Example 69, (6S)-3-[2,6-Difluoro-4-(2-phenylethynyl)phenyl]-6-(6-isopropoxy-3-pyridyl)-1,6-dimethyl-hexahydropyrimidine-2,4-dione], the Emax was 95% and the EC50 was 97 nM.

As for `CN1C(=O)N(c2c(F)cc(C#Cc3ccccc3)cc2F)C(=O)CC1(C)c1ccccc1` (racemic) [Example 13, (6RS)-3-[2,6-Difluoro-4-(2-phenylethynyl)phenyl]-1,6-dimethyl-6-phenyl-hexahydropyrimidine-2,4-dione], the Emax is 119% and the EC50 came to 28 nM.

As to `CN1C(=O)N(c2c(F)cc(C#Cc3cccnc3)cc2Cl)C(=O)CC1(C)C` [Example 9, 3-[2-Chloro-6-fluoro-4-[2-(3-pyridyl)ethynyl]phenyl]-1,6,6-trimethyl-hexahydropyrimidine-2,4-dione], the Emax was 110% and the EC50 was determined as 429 nM.

On to `CN1C(=O)N(c2c(F)cc(C#Cc3ccccc3)cc2F)C(=O)C[C@@]1(C)c1cccnc1` [Example 49, (6S)-3-[2,6-Difluoro-4-(2-phenylethynyl)phenyl]-1,6-dimethyl-6-(3-pyridyl)hexahydropyrimidine-2,4-dione], for which the Emax worked out at 98% and the EC50 turned out to be 37 nM.

Turning to `CCn1cc([C@]2(C)CC(=O)N(c3c(F)cc(C#Cc4ccccc4)cc3F)C(=O)N2C)ccc1=O` [Example 67, (6S)-3-[2,6-Difluoro-4-(2-phenylethynyl)phenyl]-6-(1-ethyl-6-oxo-3-pyridyl)-1,6-dimethyl-hexahydropyrimidine-2,4-dione], the Emax was 106% and the EC50 was determined as 56 nM.

For `CN1C(=O)N(c2c(F)cc(C#Cc3ccccc3)cc2F)C(=O)C[C@@]1(C)c1ccc(=O)[nH]c1` [Example 65, (6S)-3-[2,6-Difluoro-4-(2-phenylethynyl)phenyl]-1,6-dimethyl-6-(6-oxo-1H-pyridin-3-yl)hexahydropyrimidine-2,4-dione], the Emax stood at 123% and the EC50 is 36 nM.

With `CN1C(=O)N(c2c(F)cc(C#Cc3ccccc3)cc2F)C(=O)C[C@@]1(C)c1ccncc1` [Example 78, (6S)-3-[2,6-Difluoro-4-(2-phenylethynyl)phenyl]-1,6-dimethyl-6-(4-pyridyl)hexahydropyrimidine-2,4-dione], the Emax was 111% and the EC50 stood at 68 nM.

Consider `CC12CC(=O)N(c3c(F)cc(C#Cc4ccccc4)cc3F)C(=O)N1CCN(Cc1ccccc1)C2=O` (racemic) [Example 37, (9aRS)-2-Benzyl-7-[2,6-difluoro-4-(2-phenylethynyl)phenyl]-9a-methyl-4,9-dihydro-3H-pyrazino[1,2-c]pyrimidine-1,6,8-trione], for which the Emax amounted to 97% and the EC50 is 131 nM.

Regarding `CC(C)C1(C)CC(=O)N(c2c(F)cc(C#Cc3ccccc3)cc2F)C(=O)N1C` (racemic) [Example 26, (6RS)-3-[2,6-Difluoro-4-(2-phenylethynyl)phenyl]-6-isopropyl-1,6-dimethyl-hexahydropyrimidine-2,4-dione], the Emax was 107% and the EC50 was 64 nM.

With `CN1C(=O)N(c2ncc(C#Cc3ccccc3)cc2F)C(=O)C[C@@]1(C)c1cccnc1` [Example 50, (6S)-3-[3-Fluoro-5-(2-phenylethynyl)-2-pyridyl]-1,6-dimethyl-6-(3-pyridyl)hexahydropyrimidine-2,4-dione], the Emax was 164% and the EC50 was determined as 104 nM.

`CN1C(=O)N(c2c(F)cc(C#Cc3ccccc3)cc2F)C(=O)C[C@@]1(C)c1ccnnc1` [Example 61, (6S)-3-[2,6-Difluoro-4-(2-phenylethynyl)phenyl]-1,6-dimethyl-6-pyridazin-4-yl-hexahydropyrimidine-2,4-dione]: the Emax amounted to 136% and the EC50 is 84 nM.

On to `CN1C(=O)N(c2c(F)cc(C#Cc3ccccc3)cc2F)C(=O)C[C@@]1(C)c1ccncn1` [Example 55, (6S)-3-[2,6-Difluoro-4-(2-phenylethynyl)phenyl]-1,6-dimethyl-6-pyrimidin-4-yl-hexahydropyrimidine-2,4-dione], for which the Emax came to 106% and the EC50 is 44 nM.

Regarding `CCC1(CC)CC(=O)N(c2c(F)cc(C#Cc3ccccc3)cc2F)C(=O)N1C` [Example 22, 3-[2,6-Difluoro-4-(2-phenylethynyl)phenyl]-6,6-diethyl-1-methyl-hexahydropyrimidine-2,4-dione], the Emax is 137% and the EC50 amounted to 73 nM.

On to `CN1C(=O)N(c2c(F)cc(C#Cc3ccccc3)cc2F)C(=O)CC1(C)C` [Example 1, 3-[2,6-Difluoro-4-(2-phenylethynyl)phenyl]-1,6,6-trimethyl-hexahydropyrimidine-2,4-dione], for which the Emax stood at 191% and the EC50 is 92 nM.

`CN1C(=O)N(c2c(F)cc(C#Cc3cccnc3)cc2F)C(=O)CC1(c1ccccc1)C(F)(F)F` (racemic) [Example 72, (6RS)-3-[2,6-Difluoro-4-[2-(3-pyridyl)ethynyl]phenyl]-1-methyl-6-phenyl-6-(trifluoromethyl)hexahydropyrimidine-2,4-dione]: the Emax stood at 91% and the EC50 is 82 nM.

Turning to `CN1C(=O)N(c2ccc(C#Cc3ccccc3)cc2)C(=O)CC1(C)c1ccccc1` (racemic) [Example 24, (6RS)-1,6-Dimethyl-6-phenyl-3-[4-(2-phenylethynyl)phenyl]hexahydropyrimidine-2,4-dione], the Emax was found to be 126% and the EC50 was 254 nM.

For `CN1C(=O)N(c2ccc(C#Cc3ccccc3)cn2)C(=O)CC1(C)c1ccccc1` (racemic) [Example 23, (6RS)-1,6-Dimethyl-6-phenyl-3-[5-(2-phenylethynyl)-2-pyridyl]hexahydropyrimidine-2,4-dione], the Emax was found to be 126% and the EC50 worked out at 947 nM.

Turning to `CN1C(=O)N(c2c(F)cc(C#Cc3ccccc3)cc2F)C(=O)CC1(C)C(C)(C)C` (racemic) [Example 44, (6RS)-6-tert-Butyl-3-[2,6-difluoro-4-(2-phenylethynyl)phenyl]-1,6-dimethyl-hexahydropyrimidine-2,4-dione], the Emax was determined as 109% and the EC50 stood at 66 nM.

In the case of `CN1C(=O)N(c2c(F)cc(C#Cc3ccccc3)cc2F)C(=O)[C@H]2CCC[C@H]21` (racemic) [Example 11, (4aRS,7aSR)-3-[2,6-Difluoro-4-(2-phenylethynyl)phenyl]-1-methyl-5,6,7,7a-tetrahydro-4aH-cyclopenta[d]pyrimidine-2,4-dione], the Emax is 131% and the EC50 is 163 nM.

The record behind these values is patent US9725416B2, “Ethynyl derivatives” (Hoffmann-La Roche Inc., priority 2014, dated 2017).
